Reference: ChEMBL document CHEMBL5649169 (ChemMedChem, 2018)

Assays:
[1] = target: Flap endonuclease 1 (Homo sapiens) (UniProt P39748)
[2] = target: Eukaryotic translation initiation factor 4B (Homo sapiens) (UniProt P23588)
[3] = target: Importin-4 (Homo sapiens) (UniProt Q8TEX9)
Erlin-1 (Homo sapiens) = Erlin-1 (Homo sapiens) (UniProt O75477)
[4] = target: Iron-sulfur clusters transporter ABCB7, mitochondrial (Homo sapiens) (UniProt O75027)
[5] = target: Peptidyl-prolyl cis-trans isomerase FKBP1A (Homo sapiens) (UniProt P62942)
[6] = target: Carnitine O-palmitoyltransferase 1, liver isoform (Homo sapiens) (UniProt P50416)
[7] = target: Aminoacyl tRNA synthase complex-interacting multifunctional protein 1 (Homo sapiens) (UniProt Q12904)
[8] = target: Protein YIPF5 (Homo sapiens) (UniProt Q969M3)
[9] = target: Large ribosomal subunit protein eL21 (Homo sapiens) (UniProt P46778)
[10] = target: Serine/threonine-protein kinase 4 (Homo sapiens) (UniProt Q13043)
[11] = target: Mitochondrial Rho GTPase 2 (Homo sapiens) (UniProt Q8IXI1)
[12] = target: Large ribosomal subunit protein eL22 (Homo sapiens) (UniProt P35268)
[13] = target: Polyadenylate-binding protein-interacting protein 1 (Homo sapiens) (UniProt Q9H074)
Polyadenylate-binding protein-interacting protein 1 (Homo sapiens), sequence (Q9H074 whole entry): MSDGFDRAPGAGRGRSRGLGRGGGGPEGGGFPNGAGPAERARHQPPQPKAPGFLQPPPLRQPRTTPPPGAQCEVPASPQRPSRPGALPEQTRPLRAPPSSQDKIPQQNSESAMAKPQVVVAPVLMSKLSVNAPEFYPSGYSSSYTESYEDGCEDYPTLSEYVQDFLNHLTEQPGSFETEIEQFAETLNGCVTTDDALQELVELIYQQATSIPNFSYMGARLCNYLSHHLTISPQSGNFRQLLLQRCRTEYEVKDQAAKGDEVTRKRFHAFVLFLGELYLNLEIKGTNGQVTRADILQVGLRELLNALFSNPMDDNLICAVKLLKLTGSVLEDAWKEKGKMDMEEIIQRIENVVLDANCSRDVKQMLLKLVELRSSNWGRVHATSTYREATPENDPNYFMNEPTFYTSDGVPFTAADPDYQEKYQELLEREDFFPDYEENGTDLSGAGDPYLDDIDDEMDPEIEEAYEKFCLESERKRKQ

[14] = target: RuvB-like 2 (Homo sapiens) (UniProt Q9Y230)
[15] = target: Ubiquitin thioesterase OTUB1 (Homo sapiens) (UniProt Q96FW1)
Ubiquitin thioesterase OTUB1 (Homo sapiens), sequence (Q96FW1 whole entry): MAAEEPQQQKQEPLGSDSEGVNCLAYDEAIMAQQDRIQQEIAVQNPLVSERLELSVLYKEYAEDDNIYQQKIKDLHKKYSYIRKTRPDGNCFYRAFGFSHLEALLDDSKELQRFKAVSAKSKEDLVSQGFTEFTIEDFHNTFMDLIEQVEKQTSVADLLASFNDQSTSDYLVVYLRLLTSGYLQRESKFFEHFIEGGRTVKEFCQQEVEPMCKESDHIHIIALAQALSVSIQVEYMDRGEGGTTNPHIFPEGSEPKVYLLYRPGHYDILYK

[16] = target: Transcription factor A, mitochondrial (Homo sapiens) (UniProt Q00059)
Transcription factor A, mitochondrial (Homo sapiens), sequence (Q00059 whole entry): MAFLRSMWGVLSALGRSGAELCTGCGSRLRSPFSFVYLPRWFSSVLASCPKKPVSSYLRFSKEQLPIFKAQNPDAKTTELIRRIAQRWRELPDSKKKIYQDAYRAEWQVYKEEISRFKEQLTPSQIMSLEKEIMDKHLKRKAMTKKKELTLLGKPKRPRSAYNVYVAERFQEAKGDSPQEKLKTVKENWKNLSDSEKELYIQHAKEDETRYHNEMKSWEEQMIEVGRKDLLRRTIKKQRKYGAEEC

[17] = target: S-phase kinase-associated protein 2 (Homo sapiens) (UniProt Q13309)
[18] = target: Actin-related protein 2/3 complex subunit 3 (Homo sapiens) (UniProt O15145)
[19] = target: GTPase-activating protein and VPS9 domain-containing protein 1 (Homo sapiens) (UniProt Q14C86)
[20] = target: Transferrin receptor protein 1 (Homo sapiens) (UniProt P02786)
[21] = target: Ubiquitin-like FUBI-ribosomal protein eS30 fusion protein (Homo sapiens) (UniProt P62861)
[22] = target: Clathrin heavy chain 1 (Homo sapiens) (UniProt Q00610)
Clathrin heavy chain 1 (Homo sapiens), sequence (Q00610 whole entry): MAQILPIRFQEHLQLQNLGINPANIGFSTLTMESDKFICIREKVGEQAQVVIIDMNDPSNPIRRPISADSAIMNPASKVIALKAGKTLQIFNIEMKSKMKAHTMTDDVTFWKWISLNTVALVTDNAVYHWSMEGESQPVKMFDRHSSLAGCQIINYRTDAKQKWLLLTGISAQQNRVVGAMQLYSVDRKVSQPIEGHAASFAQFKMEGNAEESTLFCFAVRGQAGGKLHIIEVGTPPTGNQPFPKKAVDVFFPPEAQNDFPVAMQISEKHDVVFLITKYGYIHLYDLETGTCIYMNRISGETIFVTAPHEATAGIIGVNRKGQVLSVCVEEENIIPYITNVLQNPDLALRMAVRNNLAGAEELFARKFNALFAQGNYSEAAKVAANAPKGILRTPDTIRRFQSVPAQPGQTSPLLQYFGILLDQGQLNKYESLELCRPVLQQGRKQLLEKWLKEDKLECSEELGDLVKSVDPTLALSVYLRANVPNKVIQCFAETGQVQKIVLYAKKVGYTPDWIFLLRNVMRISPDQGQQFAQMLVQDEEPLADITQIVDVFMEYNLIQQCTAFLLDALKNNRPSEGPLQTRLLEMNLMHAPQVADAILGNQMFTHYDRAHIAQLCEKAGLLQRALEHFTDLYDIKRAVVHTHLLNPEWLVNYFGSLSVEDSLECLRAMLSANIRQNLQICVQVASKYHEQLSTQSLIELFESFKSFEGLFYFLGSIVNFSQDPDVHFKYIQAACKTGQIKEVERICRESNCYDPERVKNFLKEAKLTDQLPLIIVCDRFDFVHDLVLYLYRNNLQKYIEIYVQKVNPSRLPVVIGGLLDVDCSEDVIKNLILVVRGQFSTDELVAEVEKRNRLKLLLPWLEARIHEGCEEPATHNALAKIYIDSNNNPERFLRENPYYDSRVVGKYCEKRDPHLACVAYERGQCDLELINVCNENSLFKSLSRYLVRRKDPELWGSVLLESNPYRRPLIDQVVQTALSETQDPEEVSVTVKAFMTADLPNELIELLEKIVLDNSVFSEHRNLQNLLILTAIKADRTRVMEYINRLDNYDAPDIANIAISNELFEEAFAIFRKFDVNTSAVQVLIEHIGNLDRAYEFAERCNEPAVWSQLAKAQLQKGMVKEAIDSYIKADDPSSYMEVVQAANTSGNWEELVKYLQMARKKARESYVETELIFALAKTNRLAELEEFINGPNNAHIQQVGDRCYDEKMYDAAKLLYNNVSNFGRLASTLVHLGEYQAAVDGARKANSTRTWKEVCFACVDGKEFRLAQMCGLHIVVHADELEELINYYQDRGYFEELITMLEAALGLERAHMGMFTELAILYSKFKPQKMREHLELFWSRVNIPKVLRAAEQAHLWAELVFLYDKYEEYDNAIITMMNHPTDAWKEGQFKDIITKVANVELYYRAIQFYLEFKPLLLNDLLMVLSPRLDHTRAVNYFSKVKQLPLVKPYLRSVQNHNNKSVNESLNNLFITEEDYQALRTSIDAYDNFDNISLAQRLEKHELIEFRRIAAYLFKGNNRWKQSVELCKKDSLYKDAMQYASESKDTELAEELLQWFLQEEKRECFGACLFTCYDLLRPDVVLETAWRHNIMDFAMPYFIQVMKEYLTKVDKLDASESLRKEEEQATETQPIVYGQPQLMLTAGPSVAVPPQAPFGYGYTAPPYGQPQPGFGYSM

[23] = target: Tryptophan--tRNA ligase, cytoplasmic (Homo sapiens) (UniProt P23381)
[24] = target: Acidic leucine-rich nuclear phosphoprotein 32 family member A (Homo sapiens) (UniProt P39687)
[25] = target: Protein diaphanous homolog 1 (Homo sapiens) (UniProt O60610)
[26] = target: Mitogen-activated protein kinase 14 (Homo sapiens) (UniProt Q16539)
Mitogen-activated protein kinase 14 (Homo sapiens), sequence (Q16539 whole entry): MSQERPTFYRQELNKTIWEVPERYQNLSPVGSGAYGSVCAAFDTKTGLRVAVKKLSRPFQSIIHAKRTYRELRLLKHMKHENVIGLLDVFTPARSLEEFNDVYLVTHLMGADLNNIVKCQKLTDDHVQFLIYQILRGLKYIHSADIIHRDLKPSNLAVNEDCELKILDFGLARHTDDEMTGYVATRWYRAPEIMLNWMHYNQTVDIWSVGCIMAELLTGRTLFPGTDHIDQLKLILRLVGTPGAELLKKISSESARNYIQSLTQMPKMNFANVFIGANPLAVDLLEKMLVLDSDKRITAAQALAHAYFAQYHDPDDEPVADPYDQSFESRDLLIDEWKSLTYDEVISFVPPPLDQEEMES

[27] = target: 60 kDa heat shock protein, mitochondrial (Homo sapiens) (UniProt P10809)
[28] = target: Serine/threonine-protein kinase PAK 6 (Homo sapiens) (UniProt Q9NQU5)
[29] = target: Spectrin beta chain, non-erythrocytic 1 (Homo sapiens) (UniProt Q01082)
[30] = target: Zona pellucida sperm-binding protein 1 (Homo sapiens) (UniProt P60852)
[31] = target: ATP synthase F(1) complex subunit alpha, mitochondrial (Homo sapiens) (UniProt P25705)
[32] = target: Vesicle-associated membrane protein 8 (Homo sapiens) (UniProt Q9BV40)
[33] = target: Oligosaccharyltransferase complex subunit OSTC (Homo sapiens) (UniProt Q9NRP0)
[34] = target: 26S proteasome regulatory subunit 8 (Homo sapiens) (UniProt P62195)
[35] = target: Heat shock 70 kDa protein 1A/1B (Homo sapiens) (UniProt P0DMV8+P0DMV9)
[36] = target: Cytochrome c1, heme protein, mitochondrial (Homo sapiens) (UniProt P08574)
Cytochrome c1, heme protein, mitochondrial (Homo sapiens), sequence (P08574 whole entry): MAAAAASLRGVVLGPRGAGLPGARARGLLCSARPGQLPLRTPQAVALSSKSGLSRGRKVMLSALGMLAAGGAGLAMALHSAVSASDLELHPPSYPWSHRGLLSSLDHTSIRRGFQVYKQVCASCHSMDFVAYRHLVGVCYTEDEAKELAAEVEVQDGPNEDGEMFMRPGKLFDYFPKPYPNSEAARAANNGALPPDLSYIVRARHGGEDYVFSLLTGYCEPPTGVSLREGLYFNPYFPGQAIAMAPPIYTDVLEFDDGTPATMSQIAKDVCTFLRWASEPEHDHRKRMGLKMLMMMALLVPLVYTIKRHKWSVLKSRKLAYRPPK

[37] = target: Dolichyl-diphosphooligosaccharide--protein glycosyltransferase subunit DAD1 (Homo sapiens) (UniProt P61803)
[38] = target: LIM domain kinase 2 (Homo sapiens) (UniProt P53671)
[39] = target: Ras-related protein Rab-7a (Homo sapiens) (UniProt P51149)
[40] = target: X-ray repair cross-complementing protein 5 (Homo sapiens) (UniProt P13010)
[41] = target: Serine/threonine-protein kinase PLK4 (Homo sapiens) (UniProt O00444)
[42] = target: Synaptosomal-associated protein 23 (Homo sapiens) (UniProt O00161)
[43] = target: Tyrosine-protein kinase Yes (Homo sapiens) (UniProt P07947)
Tyrosine-protein kinase Yes (Homo sapiens), sequence (P07947 2-543 limits assumed): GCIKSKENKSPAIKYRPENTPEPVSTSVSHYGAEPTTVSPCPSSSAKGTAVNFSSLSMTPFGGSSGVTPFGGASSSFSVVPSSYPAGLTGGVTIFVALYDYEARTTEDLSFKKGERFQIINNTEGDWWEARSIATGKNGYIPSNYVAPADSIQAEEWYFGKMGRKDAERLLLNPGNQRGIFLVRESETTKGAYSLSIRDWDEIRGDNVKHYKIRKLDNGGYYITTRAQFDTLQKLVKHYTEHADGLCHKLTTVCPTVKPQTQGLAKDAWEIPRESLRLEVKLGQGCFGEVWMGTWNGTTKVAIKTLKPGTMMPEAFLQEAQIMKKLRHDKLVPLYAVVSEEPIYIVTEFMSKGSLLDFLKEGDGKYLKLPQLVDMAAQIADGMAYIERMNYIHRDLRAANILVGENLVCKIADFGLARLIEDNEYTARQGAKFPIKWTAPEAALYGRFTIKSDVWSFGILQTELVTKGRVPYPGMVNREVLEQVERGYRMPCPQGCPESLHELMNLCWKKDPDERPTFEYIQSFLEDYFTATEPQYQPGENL

[44] = target: TGF-beta receptor type-2 (Homo sapiens) (UniProt P37173)
Note: assay method not described here.

Importin-4 (Homo sapiens), sequence (Q8TEX9 whole entry): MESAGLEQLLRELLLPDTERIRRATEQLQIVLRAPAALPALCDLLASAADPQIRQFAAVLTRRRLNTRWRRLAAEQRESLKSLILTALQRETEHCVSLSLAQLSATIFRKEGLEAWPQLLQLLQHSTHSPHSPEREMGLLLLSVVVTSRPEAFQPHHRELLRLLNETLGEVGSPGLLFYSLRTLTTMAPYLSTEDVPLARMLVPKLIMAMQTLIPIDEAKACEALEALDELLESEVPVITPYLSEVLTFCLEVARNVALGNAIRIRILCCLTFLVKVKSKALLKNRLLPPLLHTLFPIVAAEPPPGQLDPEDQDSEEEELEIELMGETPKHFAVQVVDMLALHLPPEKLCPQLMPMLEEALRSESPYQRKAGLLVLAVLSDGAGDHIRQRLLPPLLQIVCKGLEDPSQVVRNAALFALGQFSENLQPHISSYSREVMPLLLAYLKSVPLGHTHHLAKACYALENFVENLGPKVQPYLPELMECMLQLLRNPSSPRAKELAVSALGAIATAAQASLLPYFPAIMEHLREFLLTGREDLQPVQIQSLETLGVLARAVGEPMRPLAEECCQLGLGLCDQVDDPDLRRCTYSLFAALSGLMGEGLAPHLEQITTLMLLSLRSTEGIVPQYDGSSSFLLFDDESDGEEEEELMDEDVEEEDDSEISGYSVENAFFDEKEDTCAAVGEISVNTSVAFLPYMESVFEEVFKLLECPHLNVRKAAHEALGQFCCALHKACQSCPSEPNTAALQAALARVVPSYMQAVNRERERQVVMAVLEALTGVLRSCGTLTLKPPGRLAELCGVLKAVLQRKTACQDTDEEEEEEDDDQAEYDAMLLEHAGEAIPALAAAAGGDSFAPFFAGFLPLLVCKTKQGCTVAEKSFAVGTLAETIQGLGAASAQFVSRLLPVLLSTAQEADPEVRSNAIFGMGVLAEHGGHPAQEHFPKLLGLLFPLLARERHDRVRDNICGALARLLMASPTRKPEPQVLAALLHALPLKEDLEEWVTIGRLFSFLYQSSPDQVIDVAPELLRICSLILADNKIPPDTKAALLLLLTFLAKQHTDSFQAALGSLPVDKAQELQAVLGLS

Structure (SMILES): Cc1ccc(C(=O)Nc2cccc(C(F)(F)F)c2)cc1Nc1nc(-c2cccnc2)nc2c1cnn2C
- ED50 [1]: 8.96 µM
- ED50 [2]: 0.449 µM
- ED50 [3]: 6.36 µM
- ED50 (Erlin-1 (Homo sapiens)): 0.367 µM
- ED50 [4]: 0.0622 µM
- ED50 [5]: 94 µM
- ED50 [6]: 0.0014 µM
- ED50 [7]: 16.5 µM
- ED50 [8]: 1.94 µM
- ED50 [9]: 1.64 µM
- ED50 [10]: 2.73 µM
- ED50 [11]: 1.14 µM
- ED50 [12]: 784 µM
- ED50 [13]: 13.9 µM
- ED50 [14]: 5000 µM
- ED50 [15]: 3.76 µM
- ED50 [16]: 17 µM
- ED50 [17]: 4.82 µM
- ED50 [18]: 3.47 µM
- ED50 [19]: 7.36 µM
- ED50 [20]: 0.1 µM
- ED50 [21]: 0.562 µM
- ED50 [22]: 0.0189 µM
- ED50 [23]: 0.0163 µM
- ED50 [24]: 2.29 µM
- ED50 [25]: 0.00521 µM
- ED50 [26]: 1 µM
- ED50 [27]: 0.0041 µM
- ED50 [28]: 0.146 µM
- ED50 [29]: 1.61 µM
- ED50 [30]: 0.00241 µM
- ED50 [31]: 1.48 µM
- ED50 [32]: 1.84 µM
- ED50 [33]: 15.6 µM
- ED50 [34]: 7.4 µM
- ED50 [35]: 0.181 µM
- ED50 [36]: 0.00055 µM
- ED50 [37]: 14 µM
- ED50 [38]: 2.57 µM
- ED50 [39]: 6.59 µM
- ED50 [40]: 0.0264 µM
- ED50 [41]: 0.174 µM
- ED50 [42]: 11.2 µM
- ED50 [43]: 2.58 µM
- ED50 [44]: 35.5 µM

Structure (SMILES): Cc1ccc(C(=O)Nc2cccc(C(F)(F)F)c2)cc1Nc1nc(-c2cccnc2)nc2nn(C)cc12
- ED50 [1]: 1.02 µM
- ED50 [2]: 0.0001 µM
- ED50 [3]: 1810 µM
- ED50 (Erlin-1 (Homo sapiens)): 0.00442 µM
- ED50 [4]: 0.0289 µM
- ED50 [5]: 0.00568 µM
- ED50 [6]: 0.0676 µM
- ED50 [7]: 0.0574 µM
- ED50 [8]: 0.0595 µM
- ED50 [9]: 9.95 µM
- ED50 [10]: 0.0498 µM
- ED50 [11]: 97 µM
- ED50 [12]: 0.00758 µM
- ED50 [13]: 0.00552 µM
- ED50 [14]: 0.0478 µM
- ED50 [15]: 0.655 µM
- ED50 [16]: 0.0487 µM
- ED50 [17]: 0.00261 µM
- ED50 [18]: 0.0666 µM
- ED50 [19]: 9.47 µM
- ED50 [20]: 7.34 µM
- ED50 [21]: 12.4 µM
- ED50 [22]: 0.0214 µM
- ED50 [23]: 29.9 µM
- ED50 [24]: 12.4 µM
- ED50 [25]: 1.44 µM
- ED50 [26]: 18.2 µM
- ED50 [27]: 0.148 µM
- ED50 [28]: 0.526 µM
- ED50 [29]: 0.0908 µM
- ED50 [30]: 4.25 µM
- ED50 [31]: 1.74 µM
- ED50 [32]: 4.59 µM
- ED50 [33]: 1.15 µM
- ED50 [34]: 0.443 µM
- ED50 [35]: 1.61 µM
- ED50 [36]: 0.0293 µM
- ED50 [37]: 32.9 µM
- ED50 [38]: 1.38 µM
- ED50 [39]: 0.44 µM
- ED50 [40]: 10.3 µM
- ED50 [41]: 4.34 µM
- ED50 [42]: 0.416 µM
- ED50 [43]: 3.56 µM
- ED50 [44]: 0.00886 µM
